PubChem BioAssay AID330 (DTP/NCI, 2004)
Toxic doses and inconclusive results are not listed.

System: P388 leukemia ip, CD2F1 mice, survival T/C
Experiment: NCI In Vivo Anticancer Drug Screen. Data for tumor model P388 Leukemia (intraperitoneal) in CD2F1 (CDF1) mice
Settings: endpoint: median survival time, higher = longer survival
In short: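 Mice carrying the transplanted tumor received test compound or vehicle. Survival was recorded in each group, and the value is the treated-group measurement divided by that of the vehicle-treated control group.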

[1] = dose: 50.0 mg/kg/injection, schedule: Q01DX005 (ip), vehicle: Klucel (hydroxypropylcellulose) (HPC)
[2] = dose: 100.0 mg/kg/injection, schedule: Q01DX005 (ip), vehicle: Klucel (hydroxypropylcellulose) (HPC)
[3] = dose: 200.0 mg/kg/injection, schedule: Q01DX005 (ip), vehicle: Klucel (hydroxypropylcellulose) (HPC)
[4] = dose: 60.0 mg/kg/injection, schedule: Q01DX005 (ip), vehicle: Klucel (hydroxypropylcellulose) (HPC)
[5] = dose: 120.0 mg/kg/injection, schedule: Q01DX005 (ip), vehicle: Klucel (hydroxypropylcellulose) (HPC)
[6] = dose: 50.0 mg/kg/injection, schedule: Q01DX005 (ip), vehicle: saline with Tween-80
[7] = dose: 200.0 mg/kg/injection, schedule: Q01DX005 (ip), vehicle: saline with Tween-80

Which results are given for `Cc1cc(-c2ccc(Oc3ccc(Br)cc3)cc2)n[nH]c1=O`?
T/C [1]: 99 % of control; T/C [2]: 104 % of control; T/C [3]: 96 % of control

With `CCOC(=O)C(=CNC(C)(C)C)C(=O)OCC` as the compound, how does the T/C (dose: 50.0 mg/kg/injection, schedule: Q01DX009 (ip), vehicle: saline with Tween-80) read?
The T/C was 106 % of control.

And the T/C (dose: 100.0 mg/kg/injection, schedule: Q01DX009 (ip), vehicle: saline with Tween-80)?
Its T/C is 115 % of control.

And the T/C (dose: 200.0 mg/kg/injection, schedule: Q01DX009 (ip), vehicle: saline with Tween-80)?
Its T/C is 100 % of control.

With `O=C(Nc1ccc(C2=NCCN2)cc1)c1ccc(NC(=O)c2ccc(C3=NCCN3)cc2)cc1` as the compound, how does the T/C (dose: 18.0 mg/kg/injection, schedule: Q01DX010 (ip), vehicle: saline) read?
Its T/C is 154 % of control.

And the T/C (dose: 27.0 mg/kg/injection, schedule: Q01DX010 (ip), vehicle: saline)?
The T/C was 172 % of control.

`NC1=C(O)C(=O)C(c2ccc3c(c2)CCC3)O1` (stereo unspecified) was tested. Which T/C [4] did it give?
Its T/C is 91 % of control.

What about the T/C [5] of the same compound?
Its T/C is 87 % of control.

With `O=C1C2C3CCC(O3)C2C(=O)N1CO` (stereo unspecified) as the compound, how does the T/C (dose: 60.0 mg/kg/injection, schedule: Q01DX005 (ip), vehicle: saline) read?
Its T/C is 112 % of control.

What about the T/C (dose: 120.0 mg/kg/injection, schedule: Q01DX005 (ip), vehicle: saline) of the same compound?
The T/C was 124 % of control.

What does the source list for `CC1(C)NNC(=S)NN1`?
T/C (dose: 7.5 mg/kg/injection, schedule: Q01DX005 (ip), vehicle: saline with Tween-80): 103 % of control; T/C (dose: 15.0 mg/kg/injection, schedule: Q01DX005 (ip), vehicle: saline with Tween-80): 104 % of control

What does the source list for `COC(=O)c1nc(N)nc(C(=O)OC)c1C(=O)c1ccccc1`?
T/C [4]: 100 % of control; T/C [5]: 93 % of control

What does the source list for `O=C(CNc1ccc(Cl)cc1)c1ccc(Cl)cc1`?
T/C [1]: 107 % of control; T/C [2]: 99 % of control; T/C [3]: 90 % of control

Which results are given for `Cn1ncc2c(NCc3ccccc3)ncnc21`?
T/C (dose: 6.25 mg/kg/injection, schedule: Q01DX009 (ip), vehicle: saline sonified): 95 % of control; T/C (dose: 12.5 mg/kg/injection, schedule: Q01DX009 (ip), vehicle: saline sonified): 95 % of control; T/C (dose: 25.0 mg/kg/injection, schedule: Q01DX009 (ip), vehicle: saline sonified): 109 % of control; T/C (dose: 50.0 mg/kg/injection, schedule: Q04DX003 (ip), vehicle: saline with Tween-80): 109 % of control; T/C (dose: 100.0 mg/kg/injection, schedule: Q04DX003 (ip), vehicle: saline with Tween-80): 104 % of control; T/C (dose: 200.0 mg/kg/injection, schedule: Q04DX003 (ip), vehicle: saline with Tween-80): 95 % of control

`O=C(NCCc1ccccc1Br)c1ccccc1` was tested. Which T/C [1] did it give?
The T/C was 100 % of control.

And the T/C [2]?
The T/C was 97 % of control.

What about the T/C [3] of the same compound?
The T/C was 93 % of control.

For `COc1ccc(-c2nc(C)nc3c2Cc2c(ccc4ccccc24)O3)cc1`, which T/C (dose: 50.0 mg/kg/injection, schedule: Q01DX009 (ip), vehicle: saline) is on record?
Its T/C is 98 % of control.

And the T/C (dose: 100.0 mg/kg/injection, schedule: Q01DX009 (ip), vehicle: saline)?
The T/C was 102 % of control.

And the T/C (dose: 200.0 mg/kg/injection, schedule: Q01DX009 (ip), vehicle: saline)?
The T/C was 102 % of control.

Which T/C (dose: 3.13 mg/kg/injection, schedule: Q04DX003 (ip), vehicle: DMSO) does the source give for `Oc1cc2c3c(c1)-c1c(ccc(O)c1O)CC3NCC2` (stereo unspecified) here?
The T/C was 99 % of control.

And the T/C (dose: 6.25 mg/kg/injection, schedule: Q04DX003 (ip), vehicle: DMSO)?
The T/C was 103 % of control.

And the T/C (dose: 12.5 mg/kg/injection, schedule: Q04DX003 (ip), vehicle: DMSO)?
Its T/C is 109 % of control.

What about the T/C (dose: 25.0 mg/kg/injection, schedule: Q04DX003 (ip), vehicle: DMSO) of the same compound?
Its T/C is 110 % of control.

What about the T/C (dose: 50.0 mg/kg/injection, schedule: Q04DX003 (ip), vehicle: DMSO) of the same compound?
Its T/C is 117 % of control.

Which T/C [6] does the source give for `CCOC(=O)c1cc(Cl)nc2ccc3ccccc3c12` here?
The T/C was 95 % of control.

What about the T/C (dose: 100.0 mg/kg/injection, schedule: Q01DX005 (ip), vehicle: saline with Tween-80) of the same compound?
The T/C was 98 % of control.

What about the T/C [7] of the same compound?
Its T/C is 100 % of control.

How did the T/C [6] turn out when `O=C(Oc1ccc(C2c3cc(OC(=O)c4ccccc4)c(OC(=O)c4ccccc4)cc3CC3C(=O)OCC32)cc1OC(=O)c1ccccc1)c1ccccc1` (stereo unspecified) was run?
Its T/C is 88 % of control.

What about the T/C [7] of the same compound?
Its T/C is 86 % of control.
